Results from patent US12071414B2, “Apelin receptor agonists and methods of use thereof” (Sanford Burnham Prebys Medical Discovery Institute, priority 2015, dated 2024).

Target: T1, human apelin receptor (APJ, AGTRL-one, APLNR) (Homo sapiens, UniProt P35414)
T1 construct: host or cells: Chinese hamster ovary cells, stably integrated receptor
T1 sequence (P35414 1-380): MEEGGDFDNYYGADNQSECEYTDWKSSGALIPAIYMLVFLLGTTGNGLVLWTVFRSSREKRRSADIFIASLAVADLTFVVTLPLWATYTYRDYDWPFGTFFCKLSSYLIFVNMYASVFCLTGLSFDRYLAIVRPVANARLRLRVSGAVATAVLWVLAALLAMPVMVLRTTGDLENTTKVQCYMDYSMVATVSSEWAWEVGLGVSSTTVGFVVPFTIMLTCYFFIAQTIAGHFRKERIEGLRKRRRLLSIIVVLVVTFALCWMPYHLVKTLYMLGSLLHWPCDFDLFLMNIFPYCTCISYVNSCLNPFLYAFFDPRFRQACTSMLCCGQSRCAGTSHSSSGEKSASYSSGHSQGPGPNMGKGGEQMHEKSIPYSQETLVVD
Test: cell-based cAMP TR-FRET assay of apelin receptor activation
Conditions: CHO cells expressing human APJ, forskolin-stimulated cAMP, 0.5 h incubation, 50% of control (apelin-13, 1 nM) response; read-out: Potency Category (EC50)
Summary of the method: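 CHO cells stably expressing human APJ were stimulated to raise cAMP, then incubated 0.5 h with compound (0.0-100 μM, ≤1% DMSO). Lysed cAMP measured by competitive TR-FRET immunoassay; efficacy as % of 1 nM apelin-13 response, potency from four-point logistic fit over ≥10 concentrations.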

| Compound | EC50 [µM] |
| --- | --- |
| CCS(=O)(=O)c1ccc(CC(=O)Nc2nc3cc4c(cc3s2)OCCO4)cc1 | > 0.5 |
| CCS(=O)(=O)c1ccc(CC(=O)Nc2nc3cc4c(cc3s2)OCO4)cc1 | > 0.5 |
| CCS(=O)(=O)c1ccc(CC(=O)Nc2nc3cc(N(C)C)ccc3s2)cc1 | > 0.5 |
| CCS(=O)(=O)c1cccc(CC(=O)Nc2nc3cc(OC)c(OC)cc3s2)c1 | > 0.5 |
| CCS(=O)(=O)c1ccc(CC(=O)Nc2nc3c4c(ccc3s2)OCO4)cc1 | > 0.5 |
| CCS(=O)(=O)c1ccc(C2(C(=O)Nc3nc4cc(OC)c(OC)cc4s3)CC2)cc1 | > 0.5 |
| CCS(=O)(=O)c1ccc(C(C(=O)Nc2nc3cc(OC)c(OC)cc3s2)C2CCCC2)cc1 (centres unmarked) | > 0.5 |
| CCN(CC)c1ccc2sc(NC(=O)Cc3ccc(S(=O)(=O)CC)cc3)nc2c1 | > 0.5 |
| CCS(=O)(=O)c1ccc(CC(=O)Nc2nc3c(OC)ccc(OC)c3s2)cc1 | > 0.5 |
| COc1cc2nc(NC(=O)Cc3cccc(S(=O)(=O)c4ccc(F)cc4)c3)sc2cc1OC | > 0.5 |
| COc1cc2nc(NC(=O)Cc3ccc(S(=O)(=O)CC4CC4)cc3)sc2cc1OC | > 0.5 |
| COc1cc2nc(NC(=O)Cc3ccc(S(=O)(=O)C(C)C)cc3)sc2cc1OC | > 0.5 |
| COc1cc2nc(NC(=O)Cc3ccc(S(=O)(=O)C4CCCC4)cc3)sc2cc1OC | > 0.5 |
| CCS(=O)(=O)c1ccc(C(OC)C(=O)Nc2nc3cc(OC)c(OC)cc3s2)cc1 (centres unmarked) | > 0.5 |
| CCS(=O)(=O)c1ccc(CC(=O)Nc2nc3cc(OC)c(O)cc3[nH]2)cc1 | > 0.5 |
| CCS(=O)(=O)c1ccc(C(C(=O)Nc2nc3cc(OC)c(OC)cc3s2)N(C)C)cc1 (centres unmarked) | > 0.5 |
| CCS(=O)(=O)c1ccc(C(C(=O)Nc2nc3cc(OC)c(OC)cc3s2)N2CCCCC2)cc1 (centres unmarked) | > 0.5 |
| CCS(=O)(=O)c1ccc(C(C(=O)Nc2nc3cc(OC)c(OC)cc3s2)N2CCOCC2)cc1 (centres unmarked) | > 0.5 |
| CCS(=O)(=O)c1ccc(CC(=O)Nc2nc3cc(OC)c(OC)cc3o2)cc1 | > 0.5 |
| COCCS(=O)(=O)c1ccc(CC(=O)Nc2nc3cc(OC)c(OC)cc3s2)cc1 | > 0.5 |
| COc1cc2nc(NC(=O)Cc3cccc(S(=O)(=O)C(C)C)c3)sc2cc1OC | > 0.5 |
| COc1cc2nc(NC(=O)Cc3cccc(S(=O)(=O)CC4CC4)c3)sc2cc1OC | > 0.5 |
| COc1cc2nc(NC(=O)Cc3cccc(S(=O)(=O)C4CCCC4)c3)sc2cc1OC | > 0.5 |
| CCS(=O)(=O)c1ccc(C(Oc2ccccc2OC)C(=O)Nc2nc3cc(OC)c(OC)cc3s2)cc1 (centres unmarked) | > 0.5 |
| CCS(=O)(=O)c1ccc(C(Oc2cccc(OC)c2)C(=O)Nc2nc3cc(OC)c(OC)cc3s2)cc1 (centres unmarked) | > 0.5 |
| CCS(=O)(=O)c1ccc(C(OC(C)C)C(=O)Nc2nc3cc(OC)c(OC)cc3s2)cc1 (centres unmarked) | > 0.5 |
| CCCOC(C(=O)Nc1nc2cc(OC)c(OC)cc2s1)c1ccc(S(=O)(=O)CC)cc1 (centres unmarked) | > 0.5 |

| Compound | EC50 [µM] |
| --- | --- |
| CCS(=O)(=O)c1ccc(C(OC2CCCC2)C(=O)Nc2nc3cc(OC)c(OC)cc3s2)cc1 (centres unmarked) | > 0.5 |
| CCS(=O)(=O)c1ccc(C(OC2CCCCC2)C(=O)Nc2nc3cc(OC)c(OC)cc3s2)cc1 (centres unmarked) | > 0.5 |
| CCS(=O)(=O)c1ccc(C(OCCC(C)C)C(=O)Nc2nc3cc(OC)c(OC)cc3s2)cc1 (centres unmarked) | > 0.5 |
| CCS(=O)(=O)c1ccc(CC(=O)Nc2nc3ccc(N4CCN(C)CC4)cc3s2)cc1 | > 0.5 |
| CCS(=O)(=O)c1ccc(C(Oc2ccc(OC)cc2)C(=O)Nc2nc3ccc(N4CCN(C)CC4)cc3s2)cc1 (centres unmarked) | > 0.5 |
| COc1cc2nc(NC(=O)C(Oc3ccc(C(=O)NCCN(C)C)cc3)c3ccc(C#N)cc3)sc2cc1OC (centres unmarked) | 0.05 to 0.1 |
| COCCOc1ccc(OC(C(=O)Nc2nc3cc(OC)c(OC)cc3s2)c2ccc(C#N)cc2)cc1 (centres unmarked) | 0.05 to 0.1 |
| COCCNC(=O)c1ccc(C(Oc2ccc(C#N)cc2)C(=O)Nc2nc3cc(OC)c(OC)cc3o2)cc1 (centres unmarked) | 0.05 to 0.1 |
| COc1cc2nc(NC(=O)C(Oc3ccc(OCCN4CCCCC4)cc3)c3ccc(C#N)cc3)sc2cc1OC (centres unmarked) | 0.05 to 0.1 |
| COc1cc2nc(NC(=O)C(Oc3ccc(OCCN4CCCC4)cc3)c3ccc(C#N)cc3)sc2cc1OC (centres unmarked) | 0.05 to 0.1 |
| COc1cc2nc(NC(=O)C(Oc3ccc(OCCN4CCOCC4)cc3)c3ccc(C#N)cc3)sc2cc1OC (centres unmarked) | 0.05 to 0.1 |
| CCS(=O)(=O)c1ccc(C(Oc2ccc(C#N)cc2)C(=O)Nc2nc3cc(OC)c(OC)cc3s2)cc1 (centres unmarked) | < 0.05 |
| CCS(=O)(=O)c1ccc(C(Oc2ccc(C#N)c(F)c2)C(=O)Nc2nc3cc(OC)c(OC)cc3s2)cc1 (centres unmarked) | < 0.05 |
| COc1cc2nc(NC(=O)C(Oc3ccc(C#N)cc3)c3ccccc3S(=O)(=O)Cc3ccccc3)sc2cc1OC (centres unmarked) | < 0.05 |
| CCS(=O)(=O)c1ccccc1C(Oc1ccc(C#N)cc1)C(=O)Nc1nc2cc(OC)c(OC)cc2s1 (centres unmarked) | < 0.05 |
| COc1cc2nc(NC(=O)C(Oc3ccc(C#N)cc3)c3cccc(S(=O)(=O)Cc4ccccc4)c3)sc2cc1OC (centres unmarked) | < 0.05 |
| CCS(=O)(=O)c1ccc(C(Oc2ccc(C#N)c(Cl)c2)C(=O)Nc2nc3cc(OC)c(OC)cc3s2)cc1 (centres unmarked) | < 0.05 |
| CCS(=O)(=O)c1ccc(C(Oc2ccc(C#N)cc2C)C(=O)Nc2nc3cc(OC)c(OC)cc3s2)cc1 (centres unmarked) | < 0.05 |
| CCS(=O)(=O)c1ccc(C(Oc2ccc(C#N)cc2Cl)C(=O)Nc2nc3cc(OC)c(OC)cc3s2)cc1 (centres unmarked) | < 0.05 |
| CCS(=O)(=O)c1ccc(C(Oc2ccc(C#N)cc2F)C(=O)Nc2nc3cc(OC)c(OC)cc3s2)cc1 (centres unmarked) | < 0.05 |
| COc1cc2nc(NC(=O)C(Oc3ccc(C#N)cc3)c3ccc(S(=O)(=O)C(C)C)cc3)sc2cc1OC (centres unmarked) | < 0.05 |
| CCCCS(=O)(=O)c1ccc(C(Oc2ccc(C#N)cc2)C(=O)Nc2nc3cc(OC)c(OC)cc3s2)cc1 (centres unmarked) | < 0.05 |
| COc1cc2nc(NC(=O)C(Oc3ccc(C#N)cc3)c3ccc(S(=O)(=O)CC4CC4)cc3)sc2cc1OC (centres unmarked) | < 0.05 |
| CCS(=O)(=O)c1ccc(C(Nc2ccc(C#N)cc2)C(=O)Nc2nc3cc(OC)c(OC)cc3s2)cc1 (centres unmarked) | < 0.05 |
| COc1cc2nc(NC(=O)C(Oc3ccc(C#N)cc3)c3ccc(C(=O)N(C)C)cc3)sc2cc1OC (centres unmarked) | < 0.05 |
| CCOc1cc2nc(NC(=O)C(Oc3ccc(C#N)cc3)c3ccc(S(=O)(=O)CC)cc3)sc2cc1OC (centres unmarked) | < 0.05 |
| CCS(=O)(=O)c1ccc(C(Oc2ccc([N+](=O)[O-])cc2)C(=O)Nc2nc3cc(OC)c(OC)cc3s2)cc1 (centres unmarked) | < 0.05 |

| Compound | EC50 [µM] |
| --- | --- |
| CCS(=O)(=O)c1ccc(C(Oc2ccc(C(=O)OC)cc2)C(=O)Nc2nc3cc(OC)c(OC)cc3s2)cc1 (centres unmarked) | < 0.05 |
| CCS(=O)(=O)c1ccc(C(Oc2ccc(C(=O)N(C)C)cc2)C(=O)Nc2nc3cc(OC)c(OC)cc3s2)cc1 (centres unmarked) | < 0.05 |
| COc1ccc(C(Oc2ccc(C#N)cc2)C(=O)Nc2nc3cc(OC)c(OC)cc3s2)cc1 (centres unmarked) | < 0.05 |
| CCOc1ccc(C(Oc2ccc(C#N)cc2)C(=O)Nc2nc3cc(OC)c(OC)cc3s2)cc1 (centres unmarked) | < 0.05 |
| COc1cc2nc(NC(=O)C(Oc3ccc(C#N)cc3)c3ccc(S(=O)(=O)N(C)C)cc3)sc2cc1OC (centres unmarked) | < 0.05 |
| COc1cc2nc(NC(=O)C(Oc3ccc(C#N)cc3)c3ccc(C#N)cc3)sc2cc1OC (centres unmarked) | < 0.05 |
| CCS(=O)(=O)c1ccc(C(Oc2ccc(C#N)cc2)C(=O)Nc2nc3cc(OC)c(OC)cc3o2)cc1 (centres unmarked) | < 0.05 |
| COc1cc2nc(NC(=O)C(Oc3ccc(C#N)cc3)c3ccc([N+](=O)[O-])cc3)sc2cc1OC (centres unmarked) | < 0.05 |
| COCCS(=O)(=O)c1ccc(C(Oc2ccc(C#N)cc2)C(=O)Nc2nc3cc(OC)c(OC)cc3s2)cc1 (centres unmarked) | < 0.05 |
| CCS(=O)(=O)c1ccc(C(Oc2ccc(C#N)cc2)C(=O)Nc2nc3cc(OCCF)c(OC)cc3s2)cc1 (centres unmarked) | < 0.05 |
| CCOc1c(OC)ccc2nc(NC(=O)C(Oc3ccc(C#N)cc3)c3ccc(S(=O)(=O)CC)cc3)sc12 (centres unmarked) | < 0.05 |
| CCS(=O)(=O)c1ccc(C(Oc2ccc(C#N)cc2)C(=O)Nc2nc3ccc(OC)c(OC(C)C)c3s2)cc1 (centres unmarked) | < 0.05 |
| COc1cc2nc(NC(=O)C(Oc3ccc(C#N)cc3)c3ccc(S(=O)(=O)NCCN(C)C)cc3)sc2cc1OC (centres unmarked) | < 0.05 |
| COc1cc2nc(NC(=O)C(Oc3ccc(C#N)cc3)c3ccc(C(=O)NCCN4CCCCC4)cc3)sc2cc1OC (centres unmarked) | < 0.05 |
| COc1ccc(OC(C(=O)Nc2nc3cc(OC)c(OC)cc3s2)c2ccc(C#N)cc2)cc1 (centres unmarked) | < 0.05 |
| COc1cc2nc(NC(=O)C(Oc3ccc(C#N)cc3)c3ccc(OC(C)C)cc3)sc2cc1OC (centres unmarked) | < 0.05 |
| COCCOc1ccc(C(Oc2ccc(C#N)cc2)C(=O)Nc2nc3cc(OC)c(OC)cc3s2)cc1 (centres unmarked) | < 0.05 |
| COC(=O)c1ccc(OC(C(=O)Nc2nc3cc(OC)c(OC)cc3s2)c2ccc(C#N)cc2)cc1 (centres unmarked) | < 0.05 |
| COc1cc2nc(NC(=O)C(Oc3ccc(C(=O)NCCN4CCCCC4)cc3)c3ccc(C#N)cc3)sc2cc1OC (centres unmarked) | < 0.05 |
| COc1cc2nc(NC(=O)C(Oc3ccc(C(=O)N(C)C)cc3)c3ccc(C#N)cc3)sc2cc1OC (centres unmarked) | < 0.05 |
| COc1cc2nc(NC(=O)C(Oc3ccc(C(=O)N4CCNCC4)cc3)c3ccc(C#N)cc3)sc2cc1OC (centres unmarked) | < 0.05 |
| COc1cc2nc(NC(=O)C(Oc3ccc(C#N)cc3)c3ccc(OCCN(C)C)cc3)sc2cc1OC (centres unmarked) | < 0.05 |
| COc1cc2nc(NC(=O)C(Oc3ccc(C#N)cc3)c3ccc(C(=O)N(C)C)cc3)oc2cc1OC (centres unmarked) | < 0.05 |
| COCCOc1ccc(C(Oc2ccc(C#N)cc2)C(=O)Nc2nc3cc(OC)c(OC)cc3o2)cc1 (centres unmarked) | < 0.05 |
| COc1cc2nc(NC(=O)C(Oc3ccc(C#N)cc3)c3ccc(C(=O)N4CCN(C)CC4)cc3)oc2cc1OC (centres unmarked) | < 0.05 |
| COc1cc2nc(NC(=O)C(Oc3ccc(OCCO)cc3)c3ccc(C#N)cc3)sc2cc1OC (centres unmarked) | < 0.05 |
